Measurements from patent US6949558B2, “Enhancement of taxane-based chemotherapy by a CDK1 antagonist” (Yale University, priority 2001, dated 2005).
Numbered stars: 1 amine (or outer) side, 2 acyl side, 3 side chain; on linkers, the order of the positions; unused ones are H or OH. Bridge positions count the residues as written; N and C are the ends. Square brackets hold non-standard residues; d marks the D form. Peptide text beside a SMILES is read from it. I, II: the chains in the order shown. * marks the point of attachment. Actinocin(9to1) = Cc1c2oc3c(C)ccc(C(=O)[*:1])c3nc-2c(C(=O)[*:2])c(N)c1=O; NMeV = CN[C@H](C(=O)O)C(C)C; Cbz = O=C(OCc1ccccc1)*; Sar = CNCC(=O)O; CH2F = FC*

Key:
Format in all cases: cell-based, human
HeLa cells = assay: Apoptosis by DNA content analysis and flow cytometry in HeLa cells
[1] = test system: survivin expression in MCF-7 cells; assay: Survivin expression by Western blotting in MCF-7 cells; details: for effect on the increase in survivin expression mediated by adriamycin, taxol or 50 J/m^2 UVB: preincubation with cycloheximide 2 mg/ml or actinomycin D 1 μg/ml
Description: (§1) Cell Cultures, Proteins and Antibodies: Breast carcinoma MCF-7 and cervical carcinoma HeLa cells (American Type Culture Collection, Manassas, Va.) were maintained in culture according to the manufacturer's specifications. For treatment with genotoxic agents, HeLa or MCF-7 cells were incubated with vehicle (DMSO) or taxol (2 μM, Sigma Chemical Co., St. Louis, Mo.), adriamycin (100 nM, Sigma), cis-platin (3 μM, Sigma) or subjected to ultraviolet B (UVB) irradiation at 50 or 300 J/m^2. In some experiments, HeLa or MCF-7 treated with taxol, adriamycin or UVB as described above were incubated with inhibitors of transcription (actinomycin D, 1 μg/ml) or translation (cycloheximide, 2 mg/ml) before determination of protein expression by Western blotting. […] A replication-deficient adenovirus encoding wild type survivin (pAd-Survivin) or control encoding Green Fluorescence Protein (pAd-GFP) was generated using the pAd-Easy system as described previously (M. Mesri et al. (2001) J. Clin. Invest. 108: 981-90), and propagated in HEK293 cells with purification by CsCl banding. […] Antibodies to p34^cdc2 or bcl-2 were obtained from Pharmingen (San Diego, Calif.) and R&D, respectively. An antibody to β-actin was from Sigma and antibodies to MPM-2 mitotic phosphoproteins was from Upstate Biotechnology (Lake Placid, N.Y.).
(§2) In some experiments, total RNA was extracted from MCF-7 cells at various time intervals after adriamycin treatment, and hybridized with 32 P-labeled survivin cDNA as described previously. Radioactive bands were detected by autoradiography. […] In other experiments, samples were transferred to nylon membranes and analyzed by Western blotting with antibodies to p34^cdc2 (1 μg/ml), survivin (2 μg/ml), or survivinT34* (5 μg/ml).

[2] = test system: p34^cdc2 kinase activity (MPM-2 epitope) in HeLa cells; assay: MPM-2 mitotic phosphoepitope expression (p34^cdc2 kinase activity) in HeLa cells; details: HeLa
MCF-7 cells = assay: Apoptosis by DNA content analysis and flow cytometry in MCF-7 cells; details: taxol 2 μM, adriamycin 100 nM, cis-platin 3 μM (Example 7)
Description: Cervical carcinoma HeLa (functionally inactivated p53) cells or breast carcinoma MCF-7 (wild type p53) cells were plated at 50-60% confluency in C-6 wells. […]
After 4, 8, 16, and 32 hours of incubation, without removing taxol from the wells, purvalanol A was added at three increasing concentrations, 1, 10 and 20 uM (FIG. 1). A control was performed with addition of purvalanol A at the 0-h time point.
The cell populations were harvested at increasing time intervals from the 0-h time point or corresponding to the addition of purvalanol A. Apoptosis was analyzed by DNA content analysis and flow cytometry (DAPI staining).

[3] = test system: survivin expression in HeLa cells; assay: Survivin expression by Western blotting in HeLa cells
Description: as §1, §2
In other experiments, HeLa cells were treated with taxol (0.2 μM) for 16 h followed by the DNA damaging agent adriamycin (100 nM, Sigma) or the nucleoside analog 5-Fluorouracil (500 μM, Sigma) for 8-32 h at 37° C. […] In some experiments, HeLa cells were transfected by lipofectamine with a minimal survivin promoter construct upstream of a luciferase reporter gene (pLuc-cyc1.2), as described (F. Li et al. (1998) Nature 396: 580-584). Cells were treated with taxol (2 μM) or UVB (50 J/m2), and analyzed for changes in luciferase activity at increasing time intervals (12-36 h) in a luminometer. Luciferase values were normalized to β-galactosidase expression. […] The immune complexes were separated by SDS gel electrophoresis and analyzed with antibodies to survivin or a-survivinT34* by Western blotting.

[4] = test system: p34^cdc2 kinase activity (MPM-2 epitope) in MCF-7 cells; assay: MPM-2 mitotic phosphoepitope expression (p34^cdc2 kinase activity) in MCF-7 cells; details: vincristine (FIG. 7)
Description: MPM-2 Mitotic Phosphoepitope Expression: For detection of mitotic phosphoproteins (D. D. Vandre et al. (1989) J. Cell Sci. 94: 245-58), MCF-7 cells (1-2×10^5 cells/60 mm dish) were treated with taxol (2 μM), adriamycin (100 nM), 50 or 300 J/m^2 UVB irradiation and cultured for 0, 8, 16, 24 or 36 h at 37° C. Cells were fixed in 70% ethanol, labeled with MPM-2 antibody (6 μg/ml) followed by addition of goat anti-mouse FITC (Boehringer Mannheim) for 1 h at 22° C. in the presence of 5 μg/ml propidium iodide (PI) containing 50 μg/ml RNase A. Samples were analyzed on a FACScan (Becton Dickinson, Mountain View, Calif.), using CellQuest software.
MPM-2 Mitotic Phosphoepitope Expression: For detection of mitotic phosphoproteins (D. D. Vandre et al. (1989) J. Cell Sci. 94: 245-258), MCF-7 cells (1-2×10^5 cells/60 mm dish) were treated with taxol (0.2 μM), or vincristine (100 nM) for increasing time intervals (8-36 h) at 37° C. Cells were fixed in 70% ethanol, labeled with MPM-2 antibody (6 μg/ml; Upstate Biotechnology, Lake Placid, N.Y.) followed by addition of goat anti-mouse FITC (Boehringer Mannheim) for 1 h at 22° C. in the presence of 5 μg/ml propidium iodide containing 50 μg/ml RNAse A. Samples were analyzed on a FACScan (Becton Dickinson, Mountain View, Calif.), using CellQuest software. Data are expressed as %MPM-2 positive cells in the entire population.

[5] = genistein 25 μM or TNF a 5 ng/ml, 48 h

## O=c1[nH]cc(F)c(=O)[nH]1 [5-FU, 5-Fluorouracil]
HeLa cells; taxol 0.2 μM 16 h then adriamycin 100 nM or 5-Fluorouracil 500 μM
  enhancement of apoptosis vs single agent treatment: did not result in enhanced apoptosis

## COC(=O)C[C@H](NC(=O)[C@H](C)NC(=O)[C@@H](NC(=O)OCc1ccccc1)C(C)C)C(=O)CF [Z-VAD-fink, Z-VAD-fmk] (Cbz-Val-Ala-Asp(OMe)-CH2F)
HeLa cells; preincubation with caspase inhibitor
  effect on flavopiridol-induced apoptosis: suppressed flavopiridol-induced apoptosis

## Cc1c2oc3c(C)ccc(C(=O)N[C@@H]4C(=O)N[C@H](C(C)C)C(=O)N5CCC[C@H]5C(=O)N(C)CC(=O)N(C)[C@@H](C(C)C)C(=O)O[C@@H]4C)c3nc-2c(C(=O)N[C@@H]2C(=O)N[C@H](C(C)C)C(=O)N3CCC[C@H]3C(=O)N(C)CC(=O)N(C)[C@@H](C(C)C)C(=O)O[C@@H]2C)c(N)c1=O [actinomycin D] (I: T[dV]P[Sar][NMeV] / II: T[dV]P[Sar][NMeV]; ester I:1-I:C, II:1-II:C; linker I:N-II:N via Actinocin(9to1))
[1]
  effect on the increase in survivin expression mediated by adriamycin, taxol or 50 J/m^2 UVB: significantly inhibited the increase in survivin expression

## O=C1Cc2c([nH]c3ccc([N+](=O)[O-])cc23)-c2ccccc2N1 [alsterpaullone]
[2]; taxol 0.2 μM 16 h then Cdk inhibitor for 16 h (Purvalanol A 10 μM, alsterpaullone 20 μM, flavopiridol 250 nM, olomoucine 400 μM)
  MPM-2 mitotic phosphoepitope expression: partially inhibited MPM-2 expression
[2]; taxol 0.2 μM 16 h then Cdk inhibitor for 32 h
  MPM-2 mitotic phosphoepitope expression: suppressed mitotic phosphoprotein expression

## N.N.[Cl][Pt][Cl] [cis-platin]
MCF-7 cells
  apoptosis: negligible apoptosis
  cell cycle arrest: G2/M arrest
[1]; cis-platin 3 μM
  effect on survivin levels: did not affect survivin levels
[1]; cisplatin 3 μM
  increased expression of survivin, compared with taxol: less effective

## C[C@@H]1C[C@@H]([C@H](O)CC2CC(=O)NC(=O)C2)C(=O)[C@@H](C)C1 [cycloheximide]
[1]
  effect on the increase in survivin expression mediated by adriamycin, taxol or 50 J/m^2 UVB: significantly inhibited the increase in survivin expression

## O=c1c(-c2ccc(O)cc2)coc2cc(O)cc(O)c12 [genistein]
[3]; [5]
  survivin expression: did not affect survivin expression

## CC[C@]1(O)C[C@H]2CN(CCc3c([nH]c4ccccc34)[C@@](C(=O)OC)(c3cc4c(cc3OC)N(C=O)[C@H]3[C@@](O)(C(=O)OC)[C@H](OC(C)=O)[C@]5(CC)C=CCN6CC[C@]43[C@@H]65)C2)C1 [vincristine]
[2]; vincristine 100 nM
  p34^cdc2 kinase activity: elevated p34^cdc2 kinase activity
[4]
  cdc2 kinase activity: induces cdc2 kinase activity
[3]; vincristine 100 nM
  survivin expression: increased survivin expression
HeLa cells; vincristine 100 nM
  cell cycle arrest: sustained mitotic (prometaphase) arrest

## TNF a
[3]; [5]
  survivin expression: did not affect survivin expression
